The target of this experiment is T1, MAPKAPK2 enzyme (HIS-MK2, Invitrogen PV4019) (Homo sapiens, UniProt P49137).
T1 construct: His; purchased Invitrogen PV4019
As to the kind of experiment: Alternative MAPKAPK2 assay (Caliper microfluidic mobility shift, HSP27-peptide). The experiment is classed as biochemical. As to conditions: HIS-MK2 0.013 nM, ATP 10 μM, 60 min at 30° C.

pIC50: −log10 of the molar value. Where a name gives a salt, the structure may show the parent alone.

The term pIC50 denotes the IC50 on a negative log10 scale, so that one unit is a factor of ten.

T1 sequence (P49137 whole entry): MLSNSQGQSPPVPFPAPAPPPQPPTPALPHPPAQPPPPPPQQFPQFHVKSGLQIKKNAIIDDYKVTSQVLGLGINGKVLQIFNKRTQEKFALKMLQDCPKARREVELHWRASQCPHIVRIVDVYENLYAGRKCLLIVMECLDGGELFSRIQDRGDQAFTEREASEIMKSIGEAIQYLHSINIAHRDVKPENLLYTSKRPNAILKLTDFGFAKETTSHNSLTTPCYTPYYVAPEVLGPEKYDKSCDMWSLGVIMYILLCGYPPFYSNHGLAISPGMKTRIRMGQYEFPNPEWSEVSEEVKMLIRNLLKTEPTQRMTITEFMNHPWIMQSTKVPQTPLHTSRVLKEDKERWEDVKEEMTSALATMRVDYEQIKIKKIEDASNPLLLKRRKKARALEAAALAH

As for `O=C1NC2(CC2)C2(CNC2)c2[nH]c3c(c21)CCc1cnc(-c2cccc(F)c2)nc1-3` [Example 212, 2-[3-(1-Amino-cyclopropyl)-azetidin-3-yl]-8-(3-fluoro-phenyl)-4,5-dihydro-1H-1,7,9-triaza-cyclopenta[a]naphthalene-3-carboxylic acid lactam hydrochloride], the pIC50 is 8.30.

On to `CN1CC2(C1)c1[nH]c3c(c1C(=O)NC21CC1)CCc1cnc(-c2cccc(F)c2)nc1-3` [Example 213, 2-[3-(1-Amino-cyclopropyl)-1-methyl-azetidin-3-yl]-8-(3-fluoro-phenyl)-4,5-dihydro-1H-1,7,9-triaza-cyclopenta[a]naphthalene-3-carboxylic acid lactam], for which the pIC50 is 7.72.

For the molecule `COc1ccc(-c2ncc3c(n2)-c2[nH]c4c(c2CC3)C(=O)NC2(CC2)C42CNC2)cc1` [Example 214, 2-[3-(1-Amino-cyclopropyl)-azetidin-3-yl]-8-(4-methoxy-phenyl)-4,5-dihydro-1H-1,7,9-triaza-cyclopenta[a]naphthalene-3-carboxylic acid lactam hydrochloride], the pIC50 was 8.22.

In the case of `COc1ccc(-c2ncc3c(n2)-c2[nH]c4c(c2CC3)C(=O)NC2(CC2)C42CN(C)C2)cc1` [Example 215, 2-[3-(1-Amino-cyclopropyl)-1-methyl-azetidin-3-yl]-8-(4-methoxy-phenyl)-4,5-dihydro-1H-1,7,9-triaza-cyclopenta[a]naphthalene-3-carboxylic acid lactam], the pIC50 was 7.74.

Take `O=C1NC2(CC2)Cc2[nH]c3c(c21)CCc1cnc(-c2ccc(N4CCNCC4)cc2)cc1-3` [Example 216, 2-(1-Amino-cyclopropylmethyl)-8-(4-piperazin-1-yl-phenyl)-4,5-dihydro-1H-pyrrolo[2,3-f]isoquinoline-3-carboxylic acid lactam hydrochloride]: the pIC50 was 7.74.

On to `CN1CCN(c2ccc(-c3cc4c(cn3)CCc3c-4[nH]c4c3C(=O)NC3(CC3)C4)cc2)CC1` [Example 217, 2-(1-Amino-cyclopropylmethyl)-8-(4-methyl-piperazin-1-yl-phenyl)-4,5-dihydro-1H-pyrrolo[2,3-f]isoquinoline-3-carboxylic acid lactam], for which the pIC50 was 7.03.

For the molecule `COc1ccc(-c2ncc3c(n2)-c2c(c4c(n2C)C2(CNC2)CNC4=O)CC3)cc1` [Example 218, 2-(3-Aminomethyl-azetidin-3-yl)-8-(4-methoxy-phenyl)-1-methyl-4,5-dihydro-1H-1,7,9-triaza-cyclopenta[a]naphthalene-3-carboxylic acid lactam hydrochloride], the pIC50 is 7.52.

For `COc1ccc(-c2ncc3c(n2)-c2c(c4c(n2C)C2(CNC4=O)CN(C)C2)CC3)cc1` [Example 219, 2-(3-Aminomethyl-1-methyl-azetidin-3-yl)-8-(4-methoxy-phenyl)-1-methyl-4,5-dihydro-1H-1,7,9-triaza-cyclopenta[a]naphthalene-3-carboxylic acid lactam], the pIC50 was 7.70.

With `O=C1NC2(CC2)C2(CC2)c2[nH]c3c(c21)CCc1cnc(-c2ccc(N4CCNCC4)cc2)cc1-3` [Example 220, 2-(1′-Amino-bicyclopropyl-1-yl)-8-(4-piperazin-1-yl-phenyl)-4,5-dihydro-1H-pyrrolo[2,3-f]isoquinoline-3-carboxylic acid lactam hydrochloride], the pIC50 is 7.59.

For `CN1CCN(c2ccc(-c3cc4c(cn3)CCc3c-4[nH]c4c3C(=O)NC3(CC3)C43CC3)cc2)CC1` [Example 221, 2-(1′-Amino-bicyclopropyl-1-yl)-8-[4-(4-methyl-piperazin-1-yl)-phenyl]-4,5-dihydro-1H-pyrrolo[2,3-f]isoquinoline-3-carboxylic acid lactam], the pIC50 is 7.54.

`CN1CC2(C1)c1[nH]c3c(c1C(=O)NC21CC1)CCc1cnc(-c2ccc(C(F)(F)F)nc2)cc1-3` [Example 222, 2-[3-(1-Amino-cyclopropyl)-1-methyl-azetidin-3-yl]-8-(6-trifluoromethyl-pyridin-3-yl)-4,5-dihydro-1H-pyrrolo[2,3-f]isoquinoline-3-carboxylic acid lactam]: the pIC50 was greater than 8.52.

Consider `CN1CC2(C1)c1[nH]c3c(c1C(=O)NC21CC1)CCc1cnc(-c2ccc(F)nc2)cc1-3` [Example 223, 2-[3-(1-Amino-cyclopropyl)-1-methyl-azetidin-3-yl]-8-(6-fluoro-pyridin-3-yl)-4,5-dihydro-1H-pyrrolo[2,3-f]isoquinoline-3-carboxylic acid lactam], for which the pIC50 was greater than 8.52.

With `CN1CC2(C1)c1[nH]c3c(c1C(=O)NC21CC1)CCc1cnc(-c2cccc(Cl)c2)cc1-3` [Example 224, 2-[3-(1-Amino-cyclopropyl)-1-methyl-azetidin-3-yl]-8-(3-chlorophenyl)-4,5-dihydro-1H-pyrrolo[2,3-f]isoquinoline-3-carboxylic acid lactam], the pIC50 is greater than 8.52.

As for `COc1ccc(-c2cc3c(cn2)CCc2c-3[nH]c3c2C(=O)NC2(CC2)C32CN(C)C2)cc1` [Example 225, 2-[3-(1-Amino-cyclopropyl)-1-methyl-azetidin-3-yl]-8-(4-methoxyphenyl)-4,5-dihydro-1H-pyrrolo[2,3-f]isoquinoline-3-carboxylic acid lactam], the pIC50 was greater than 8.52.

On to `CN1CC2(C1)c1[nH]c3c(c1C(=O)NC21CC1)CCc1cnc(-c2cccc(C(=O)NCc4ccccc4)c2)cc1-3` [Example 226, 2-[3-(1-Amino-cyclopropyl)-1-methyl-azetidin-3-yl]-8-(3-benzylcarbamoyl-phenyl)-4,5-dihydro-1H-pyrrolo[2,3-f]isoquinoline-3-carboxylic acid lactam], for which the pIC50 is greater than 8.52.

Turning to `CN1CC2(C1)c1[nH]c3c(c1C(=O)NC21CC1)CCc1cnc(-c2ccc(OCCN4CCOCC4)cc2)nc1-3` [Example 227, 2-[3-(1-Amino-cyclopropyl)-1-methyl-azetidin-3-yl]-8-[4-(2-morpholin-4-yl-ethoxy)-phenyl]-4,5-dihydro-1H-1,7,9-triaza-cyclopenta[a]naphthalene-3-carboxylic acid lactam], the negative logarithm of the IC50 (pIC50) is 8.15.

In the case of `O=C1NC2(CC2)C2(CC2)c2[nH]c3c(c21)CCc1cnc(-c2ccc(OCCN4CCOCC4)cc2)cc1-3` [Example 230, 2-(1′-Amino-bicyclopropyl-1-yl)-8-[4-(2-morpholin-4-yl-ethoxy)-phenyl]-4,5-dihydro-1H-pyrrolo[2,3-f]isoquinoline-3-carboxylic acid lactam], the pIC50 is 7.44.

Consider `O=C1NC2(CCC2)Cc2[nH]c3c(c21)CCc1cnc(-c2ccc(OCCN4CCOCC4)cc2)cc1-3` [Example 231, 2-(1-Amino-cyclobutylmethyl)-8-[4-(2-morpholin-4-yl-ethoxy)-phenyl]-4,5-dihydro-1H-pyrrolo[2,3-f]isoquinoline-3-carboxylic acid lactam], for which the pIC50 was 7.14.

For the molecule `CC(C)Oc1ccc(-c2cc3c(cn2)CCc2c-3[nH]c3c2C(=O)NC2(CC2)C3)cn1` [Example 235, 2-(1-Amino-cyclopropylmethyl)-8-(6-isopropoxy-pyridin-3-yl)-4,5-dihydro-1H-pyrrolo[2,3-f]isoquinoline-3-carboxylic acid lactam], the pIC50 was 7.19.

As to `O=C1NC2(CC2)Cc2[nH]c3c(c21)CCc1cnc(-c2ccc(N4CCOCC4)nc2)cc1-3` [Example 236, 2-(1-Amino-cyclopropylmethyl)-8-(6-morpholin-4-yl-pyridin-3-yl)-4,5-dihydro-1H-pyrrolo[2,3-f]isoquinoline-3-carboxylic acid lactam], the pIC50 is 7.66.

As to `COc1ccc(-c2cc3c(cn2)CCc2c-3[nH]c3c2C(=O)NC2(CC2)C3)cc1F` [Example 238, 2-(1-Amino-cyclopropylmethyl)-8-(3-fluoro-4-methoxy-phenyl)-4,5-dihydro-1H-pyrrolo[2,3-f]isoquinoline-3-carboxylic acid lactam], the negative-log IC50 (pIC50) was 7.17.

For the molecule `O=C1NC2(CC2)Cc2[nH]c3c(c21)CCc1cnc(-c2ccc(CO)nc2)cc1-3` [Example 240, 2-(1-Amino-cyclopropylmethyl)-8-(6-hydroxymethyl-pyridin-3-yl)-4,5-dihydro-1H-pyrrolo[2,3-f]isoquinoline-3-carboxylic acid lactam], the pIC50 was 7.96.

Take `CC(=O)OCc1ccc(-c2cc3c(cn2)CCc2c-3[nH]c3c2C(=O)NC2(CC2)C3)cn1` [Example 244, 8-(6-Acetoxymethyl-pyridin-3-yl)-2-(1-amino-cyclopropylmethyl)-4,5-dihydro-1H-pyrrolo[2,3-f]isoquinoline-3-carboxylic acid lactam]: the pIC50 is 7.37.

Take `O=C1NC2(CC2)Cc2[nH]c3c(c21)CCc1cnc(-c2ccc(CCCN4CCOCC4)cc2)cc1-3` [Example 246, 2-(1-Amino-cyclopropylmethyl)-8-[4-(3-morpholin-4-yl-propyl)-phenyl]-4,5-dihydro-1H-pyrrolo[2,3-f]isoquinoline-3-carboxylic acid lactam]: the pIC50 was 7.00.

Consider `O=C1NC2(CC2)Cc2[nH]c3c(c21)CCc1cnc(-c2ccc(CCCN4CC(O)C4)cc2)cc1-3` [Example 248, 2-(1-Amino-cyclopropylmethyl)-8-{4-[3-(3-hydroxy-azetidin-1-yl)-propyl]-phenyl}-4,5-dihydro-1H-pyrrolo[2,3-f]isoquinoline-3-carboxylic acid lactam], for which the negative logarithm of the IC50 (pIC50) was 7.10.

Consider `CCN1CC2(C1)c1[nH]c3c(c1C(=O)NC21CC1)CCc1cnc(-c2ccc(OC(C)C)nc2)cc1-3` [Example 250], for which the pIC50 is greater than 8.52.

With `CCN1CC2(C1)c1[nH]c3c(c1C(=O)NC21CC1)CCc1cnc(-c2ccc(OC)nc2)cc1-3` [Example 251, 2-[3-(1-Amino-cyclopropyl)-1-ethyl-azetidin-3-yl]-8-(6-methoxy-pyridin-3-yl)-4,5-dihydro-1H-pyrrolo[2,3-f]isoquinoline-3-carboxylic acid lactam], the pIC50 was 8.52.

In the case of `CCN1CC2(C1)c1[nH]c3c(c1C(=O)NC21CC1)CCc1cnc(-c2cnc(OC)c(F)c2)cc1-3` [Example 252, 2-[3-(1-Amino-cyclopropyl)-1-ethyl-azetidin-3-yl]-8-(5-fluoro-6-methoxy-pyridin-3-yl)-4,5-dihydro-1H-pyrrolo[2,3-f]isoquinoline-3-carboxylic acid lactam], the pIC50 is 8.10.

Source of the values: patent US7838674B2, “Tetracyclic lactame derivatives” (Novartis AG, priority 2007, dated 2010).
